Like-named read-outs stand apart in the source and are kept apart here.
Columns and labels:
[1] = CNP immunoreactivity concentration in plasma, half-life after intravenous administration (Example 7); details: male, SD, rat, in vivo, 10 nmol/kg
Description: The experiment was carried out using rats into which polyethylene tube (PE-50 manufactured by Clay Adams) was previously inserted into thigh artery under an anesthetized condition with Nembutal. As to a test system, male SD strain rats (Nippon Charles River) of 7 weeks age were used where one group comprised 3 rats. Native CNP-22 or chimeric CNP in a dose of 10 nmol/kg was administered into tail vein of the rat and the blood before the administration and until 60 minutes after the administration was collected by a polyethylene tube inserted into the thigh artery. To the collected blood were added EDTA (manufactured by Dojin Laboratories) and aprotinin (manufactured by Bayer) as a stabilizer and an anti-coagulant, respectively and the plasma was separated therefrom by centrifugal separation. CNP immunoreactivity concentration in plasma was measured by a competitive radioimmunoassay (RIA). At that time, a rabbit polyclonal antibody (#2) which specifically recognizes the ring partial structure of the native CNP-22 was used as an antibody and, as a labeled compound, ^125I-[Tyr^0] CNP was used.

NEP = molecular target: T1, NEP (Rattus norvegicus, UniProt P07861); assay: NEP resistance in vivo: influence of NEP inhibitor on pharmacokinetic parameters after intravenous administration; details: for AUC(0-inf) / C0 / half-life: male, SD, rat, in vivo, iv, 0.02 mg/kg, intravenous 0.02 mg/kg, male rats, N = 3; for AUC(0-inf): read-out: AUC0→∞ (converted); for C0: read-out: C0; for half-life: read-out: T½
T1 construct: male SD strain rats of 7 weeks age (Nippon Charles River; body weight: ca. 250 g) were used; from tissue; host or cells: whole animal: male SD rats (Nippon Charles River), in vivo
T1 sequence (P07861 1-750): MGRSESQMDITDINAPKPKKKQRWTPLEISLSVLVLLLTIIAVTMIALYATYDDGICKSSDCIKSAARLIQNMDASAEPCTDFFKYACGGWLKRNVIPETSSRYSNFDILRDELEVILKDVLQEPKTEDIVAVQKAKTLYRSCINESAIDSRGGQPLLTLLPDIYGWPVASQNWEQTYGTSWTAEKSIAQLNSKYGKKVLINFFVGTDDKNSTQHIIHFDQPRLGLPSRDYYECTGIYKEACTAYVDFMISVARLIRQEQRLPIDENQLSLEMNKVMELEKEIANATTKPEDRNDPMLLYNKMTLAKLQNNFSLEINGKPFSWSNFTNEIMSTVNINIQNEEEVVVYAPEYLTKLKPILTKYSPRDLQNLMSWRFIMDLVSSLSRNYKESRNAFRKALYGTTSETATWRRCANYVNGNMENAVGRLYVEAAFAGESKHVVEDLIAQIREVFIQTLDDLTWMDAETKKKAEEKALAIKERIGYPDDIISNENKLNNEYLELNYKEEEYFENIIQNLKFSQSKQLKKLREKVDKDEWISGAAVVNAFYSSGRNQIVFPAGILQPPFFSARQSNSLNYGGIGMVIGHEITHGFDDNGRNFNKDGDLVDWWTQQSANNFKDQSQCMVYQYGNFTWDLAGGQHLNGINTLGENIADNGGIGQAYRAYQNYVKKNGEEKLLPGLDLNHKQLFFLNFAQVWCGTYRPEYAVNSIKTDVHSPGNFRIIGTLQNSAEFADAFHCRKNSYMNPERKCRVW
Description: Further, NEP resistance in vivo of the native CNP-22 and chimeric CNP (B) was evaluated using the effect by the joint use with an NEP inhibitor affecting on changes in CNP immunoreactivity concentration in plasma after the intravenous administration as an index. This test was also carried out using rats into which a polyethylene tube (PE-50, manufactured by Clay […].) was inserted into thigh artery for collection of blood and rats into which a polyethylene tube (PE-10, manufactured by Clay […].) was inserted into thigh vein for administration of an NEP inhibitor under an anesthetizing condition using Nembutal. As a test system, male SD strain rats of 7 weeks age (Nippon Charles River; body weight: ca. 250 g) were used for the experiment where one group comprised 3 rats. […] Time for the administration was from 10 minutes before the administration of the native CNP-22 or the chimeric CNP (B) to completion of blood collection which was 60 minutes after the administration. The native CNP-22 and the chimeric CNP (B) each was administered into the tail vein in a dose of 20 μg/kg and the blood before starting the administration of NEP inhibitor (-10 minutes), before the administration of CNP (0 minute) and until after 60 minutes from the administration was collected by a thigh artery cannula. After a stabilizer and an anticoagulant were added to the collected blood, it was centrifuged to give plasma and the immunoreactivity concentration in the plasma was measured by the above-mentioned competitive RIA. The pharmacokinetic analysis was carried out by the same method as in Example 1.

SMILES: CC[C@H](C)[C@@H]1NC(=O)[C@H](CCCNC(=N)N)NC(=O)[C@H](CC(=O)O)NC(=O)[C@H](CC(C)C)NC(=O)[C@H](CCCCN)NC(=O)[C@H](CC(C)C)NC(=O)CNC(=O)[C@H](Cc2ccccc2)NC(=O)[C@@H](NC(=O)CNC(=O)[C@H](CCCCN)NC(=O)[C@H](CO)NC(=O)[C@H](CC(C)C)NC(=O)CN)CSSC[C@@H](C(=O)O)NC(=O)CNC(=O)[C@H](CC(C)C)NC(=O)CNC(=O)[C@H](CO)NC(=O)[C@H](CCSC)NC(=O)[C@H](CO)NC(=O)CNC1=O [Native CNP-22]
- half-life [1]: 4.34 min
- AUC with NEP inhibitor as compared with the case where the inhibitor was not used (NEP; intravenous, rats): about 3.7 fold
- half-life with NEP inhibitor as compared with the case where the inhibitor was not used (NEP; intravenous, rats): about 5 fold
- AUC(0-inf) (NEP; NEP Inhibitor (+)): 12.6 ng·h/mL
- C0 (NEP; NEP Inhibitor (+)): 131 ± 32 ng/mL
- half-life (NEP; NEP Inhibitor (+)): 9.94 ± 1.4 min
- AUC(0-inf) (NEP; NEP Inhibitor (−)): 3.37 ng·h/mL
- C0 (NEP; NEP Inhibitor (−)): 145 ± 20 ng/mL
- half-life (NEP; NEP Inhibitor (−)): 1.96 ± 0.05 min

— patent US8551937B2, “Peptide having an extending action for half-life of object peptide in plasma” (priority 2008, dated 2013)
